The values below come from US8697691B2, “Alkyl 3-((2-amidoethyl)amino)-8-azabicyclo[3.2.1]octane-8-carboxylate analogs as selective M1 agonists and methods of making and using same” (Vanderbilt University, priority 2009, dated 2014).

This assay concerns the target T1, human M1 receptor (Homo sapiens, UniProt P11229).
T1 construct: host or cells: CHO-K1
T1 sequence (P11229 1-460): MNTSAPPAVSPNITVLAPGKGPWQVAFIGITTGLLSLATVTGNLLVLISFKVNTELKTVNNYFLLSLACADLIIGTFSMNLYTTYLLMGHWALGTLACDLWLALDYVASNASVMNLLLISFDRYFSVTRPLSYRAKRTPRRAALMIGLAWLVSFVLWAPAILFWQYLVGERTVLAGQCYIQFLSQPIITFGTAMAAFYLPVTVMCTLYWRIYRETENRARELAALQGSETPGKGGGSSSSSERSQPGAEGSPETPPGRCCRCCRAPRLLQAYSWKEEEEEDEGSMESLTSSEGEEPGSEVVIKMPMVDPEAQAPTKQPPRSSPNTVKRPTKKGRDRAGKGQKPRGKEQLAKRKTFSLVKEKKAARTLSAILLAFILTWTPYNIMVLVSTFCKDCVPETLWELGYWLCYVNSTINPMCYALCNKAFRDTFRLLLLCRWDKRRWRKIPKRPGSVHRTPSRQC
The assay is described as follows: Calcium mobilization assay, CHO-K1 cells stably expressing hM1 (high throughput, FDSS 6000). The assay is classed as cell-based. The settings on record: for Emax: CHO-K1, read-out: Efficacy (% Max ACh). The source says: Chinese hamster ovary (CHO-K1) cells stably expressing rat (r)M1 were purchased from the American Type Culture Collection and cultured according to their indicated protocol. CHO cells stably expressing human (h)M2, hM3, and hM5 were described previously (Levey et al., 1991); hM1 and hM4 cDNAs were purchased from Missouri S&T cDNA Resource; rM4 cDNA was provided by T. I. Bonner (National Institutes of Health, Bethesda, Md.). hM1, hM4, and rM4 cDNAs were used to stably transfect CHO-K1 cells purchased from the American Type Culture Collection using Lipofectamine2000. To make stable hM2, hM4 and rM4 cell lines for use in calcium mobilization assays, these cells also were stably transfected with a chimeric G-protein (Gqi5) (provided by B. R. Conklin, University of California, San Francisco) using Lipofectamine 2000. rM1, hM3, and hM5 cells were grown in Ham's F-12 medium containing 10% heat-inactivated fetal bovine serum (FBS), 20 mM HEPES, and 50 μg/mL G418 sulfate. hM2-Gqi5 and hM4-Gqi5 cells were grown in the same medium also containing 500 μg/mL Hygromycin B. Stable rM4-Gqi5 cells were grown in DMEM containing 10% heat-inactivated FBS, 20 mM HEPES, 400 μg/mL G418 sulfate, and 500 μg/mL Hygromycin B. The rat M1 Y381A orthosteric mutant receptor cDNA was generated using the Quik-Change site-directed mutagenesis kit (Stratagene) and verified by sequencing. CHO-K1 cells were stably transfected with this cDNA using Lipofectamine2000 and screened for expression based on calcium mobilization in response to the allosteric M1 agonist N-desmethylclozapine.
For high throughput measurement of agonist-evoked increases in intracellular calcium, CHO-K1 cells stably expressing muscarinic receptors were plated in growth medium lacking G418 and hygromycin at 15,000 cells/20 μL/well (hM1, hM2-Gqi5, hM3, hM4-Gq15, and hM5) in Greiner 384-well black-walled, tissue culture (TC)-treated, clear-bottom plates (VWR). Cells were incubated overnight at 37° C. and 5% CO2. The next day, cells were washed using an ELX 405 (BioTek) with three washes (50 μL) of assay buffer then aspirated to 15 μL. Next, 5 μL of 8 μM Fluo-4/acetoxymethyl ester (Invitrogen, Carlsbad, Calif.) prepared as a 2.3 mM stock in DMSO and mixed in a 1:1 ratio with 10% (w/v) Pluronic F-127 and diluted in assay buffer was added to the wells and the cell plates were incubated for 45 min at 37° C. and 5% CO2. Dye was removed by washing with the ELX 405 (three 50 μL washes of assay buffer) then aspirated to 20 μL. Agonist and compound master plates were formatted in an 11 point CRC format (1:3 dilutions) in 100% DMSO with a starting concentration of 10 mM using the BRAVO liquid handler (Agilent). Test compound CRCs were then transferred to daughter plates ([…]) using the Echo acoustic plate reformatter (Labcyte, Sunnyvale, Calif.) and then diluted into assay buffer (40 μL) to a 2× stock using a Thermo Fisher Combi (Thermo Fisher Scientific, Waltham, Mass.). Calcium flux was measured using the Functional Drug Screening System (FDSS) 6000 (Hamamatsu Corporation, Tokyo, Japan) as an increase in the fluorescent static ratio. 20 μL of Agonist Compounds were applied to cells using the automated system of the FDSS 6000 at 4 s into the 300 s protocol and the data were collected at 1 Hz. Concentration-response curves were generated using a four-parameter logistical equation in XLfit curve fitting software (IDBS, Bridgewater, N.J.) for Excel (Microsoft, Redmond, Wash.) or Prism (GraphPad Software, Inc., San Diego, Calif.).

The mark [1] stands for this setting: human M1, agonist-evoked calcium mobilization in CHO-K1 cells, read-out: Potency (EC50).

pEC50: −log10 of the molar value. Like-named read-outs stand apart in the source and are kept apart here.

Consider `CCOC(=O)N1[C@@H]2CC[C@H]1C[C@H](NCCNC(=O)c1ccccc1Cl)C2` [Example 42], for which the Emax was 25%. In the case of `CCOC(=O)N1C2CCC1CC(NCCNC(=O)N1[C@H](C)CCC[C@@H]1C)C2` (stereo partly drawn) [Example 32], the Emax is 26%. Same read-out and setting: the result for `COC(=O)N1C2CCC1CC(NCCNC(=O)c1ccccc1)C2` (stereo not drawn) [Example 29, methyl 3-((3-exo)-(2-benzamidoethyl)amino)-8-azabicyclo[3.2.1]octane-8-carboxylate] reads 7%; that for `C=CCOC(=O)N1[C@@H]2CC[C@H]1C[C@H](NCCNC(=O)c1ccccc1)C2` [Example 30, allyl 3-((3-exo)-(2-benzamidoethyl)amino)-8-azabicyclo[3.2.1]octane-8-carboxylate], 29%. Consider `CCOC(=O)N1[C@@H]2CC[C@H]1C[C@H](NCCNC(=O)N1CCCCC1)C2` [Example 28, ethyl 3((3-exo)-(2-(piperidine-1-carboxamido)ethyl)amino)-8-azabicyclo[3.2.1]octane-8-carboxylate], for which the Emax came out at 46%. Further, the pEC50 under setting [1] is 6.15. Consider `CCOC(=O)N1[C@@H]2CC[C@H]1C[C@H](NCCNC(=O)c1ccc(F)cc1)C2` [Example 33, ethyl 3-((3-exo)-(2-(4-fluorobenzamido)ethyl)-amino)-8-azabicyclo[3.2.1]octane-8-carboxylate], for which the Emax stood at 48%. In addition, under setting [1], the pEC50 was 5.77. Take `CCOC(=O)N1[C@@H]2CC[C@H]1C[C@H](NCCNC(=O)c1cccc(Cl)c1)C2` [Example 35, ethyl 3-((3-exo)-(2-(3-chlorobenzamido)ethyl)-amino)-8-azabicyclo[3.2.1]octane-8-carboxylate]: the Emax worked out at 57%. Further, the negative-log EC50 (pEC50) under setting [1] is 6.31. For `CCOC(=O)N1[C@@H]2CC[C@H]1C[C@H](NCCNC(=O)c1ccccc1C)C2` [Example 31, ethyl 3-((3-exo)-(2-(2-methylbenzamido)ethyl)-amino)-8-azabicyclo[3.2.1]octane-8-carboxylate], the pEC50 is 5.60 and the Emax was determined as 38%. As to `CCOC(=O)N1[C@@H]2CC[C@H]1C[C@H](NCCNC(=O)c1cc(F)cc(F)c1)C2` [Example 36, ethyl 3-((3-exo)-(2-(3,5-difluorobenzamido)ethyl)-amino)-8-azabicyclo[3.2.1]octane-8-carboxylate], the Emax is 37%. Further, the pEC50 under setting [1] was 5.59. With `CC(C)OC(=O)N1C2CCC1CC(NCCNC(=O)c1ccccc1)C2` (stereo not drawn) [Example 37, isopropyl 3-((3-exo)-(2-benzamidoethyl)amino)-8-azabicyclo[3.2.1]octane-8-carboxylate], the Emax came to 7%. On to `CCOC(=O)N1[C@@H]2CC[C@H]1C[C@H](NCCNC(=O)c1ccc(F)c(F)c1)C2` [Example 39, ethyl 3-((3-exo)-(2-(3,4-difluorobenzamido)ethyl)-amino)-8-azabicyclo[3.2.1]octane-8-carboxylate], for which the Emax was determined as 46%. Further, the negative-log EC50 (pEC50) under setting [1] was 5.85. With `CCOC(=O)N1[C@@H]2CC[C@H]1C[C@H](NCCNC(=O)N1CCOCC1)C2` [Example 38, ethyl 3-((3-exo)-(2-(morpholine-4-carboxamido)ethyl)-amino)-8-azabicyclo[3.2.1]octane-8-carboxylate], the Emax amounted to 37%. Moreover, the pEC50 under setting [1] is 5.44.

With `CCOC(=O)N1[C@@H]2CC[C@H]1C[C@H](NCCNC(=O)c1cccs1)C2` [Example 40, ethyl 3-((3-exo)-(2-(thiophene-2-carboxamido)ethyl)-amino)-8-azabicyclo[3.2.1]octane-8-carboxylate], the pEC50 is 5.68 and the Emax came out at 15%. Take `CCOC(=O)N1[C@@H]2CC[C@H]1C[C@H](NCCNC(=O)C1CCCCC1)C2` [Example 34, ethyl 3-((3-exo)-(2-(cyclohexanecarboxamido)-ethyl)amino)-8-azabicyclo[3.2.1]octane-8-carboxylate]: the Emax turned out to be 25%. Further, the pEC50 under setting [1] was 5.49.

Consider `CCOC(=O)N1C2CCC1CC(NCCNC(=O)c1cccc(OC)c1)C2` (stereo not drawn) [Example 41, ethyl 3-((3-exo)-(2-(3-methoxybenzamido)ethyl)-amino)-8-azabicyclo[3.2.1]octane-8-carboxylate], for which the Emax is 19%.
